Source: US20250195521A1 (Revolution Medicines, Inc., priority 2020, published 2025)
Like-named read-outs stand apart in the source and are kept apart here.

What was measured:
AsPC-1 (K-Ras G12D) [1] = assay: Potency assay: pERK; format: cell-based, human; settings: Homo sapiens
In short: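 Cells plated overnight, then exposed 4 h at 37 °C to 10-point 3-fold dilutions of compound, in duplicate. pERK read by AlphaLISA SureFire Ultra p-ERK1/2 lysate assay or by In-Cell Western (pERK antibody, DRAQ5 DNA normalisation). IC50 from 4-parameter sigmoidal fit of signal vs log concentration.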

NCI-H358 (K-Ras G12C) = assay: CellTiter-Glo cell viability assay, H358; format: cell-based, human; settings: Homo sapiens, NCI-H358, 120 h
In short: (§1)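 Compounds were dispensed directly onto K-Ras mutant cells and incubated until day 5, then plates were equilibrated to room temperature for about 30 minutes before CellTiter-Glo luminescence. Signals were normalized as (sample/average DMSO)*100 and fitted by four-parameter logistic fit.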

AsPC-1 (K-Ras G12D) [2] = assay: CellTiter-Glo cell viability assay, AsPC-1; format: cell-based, human; settings: Homo sapiens, ASPC1, 120 h, read-out: AsPC-1 Cell Viability IC50
In short: as §1

KRAS G13D = KRAS G13D (Homo sapiens (Human), UniProt P01116+P62937, G13D); assay: Ras-Raf disruption/FRET/MOA assay, KRAS G13D; format: biochemical
Chain of KRAS G13D (P01116 other isoform, or with tags, fused parts or gaps G13D): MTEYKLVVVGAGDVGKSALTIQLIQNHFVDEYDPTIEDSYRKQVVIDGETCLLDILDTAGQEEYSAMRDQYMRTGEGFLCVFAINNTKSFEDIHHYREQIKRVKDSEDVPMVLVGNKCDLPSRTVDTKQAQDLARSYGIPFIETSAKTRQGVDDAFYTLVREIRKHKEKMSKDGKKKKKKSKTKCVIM
Chain of KRAS G13D (P62937 whole entry, the tested form may be a part): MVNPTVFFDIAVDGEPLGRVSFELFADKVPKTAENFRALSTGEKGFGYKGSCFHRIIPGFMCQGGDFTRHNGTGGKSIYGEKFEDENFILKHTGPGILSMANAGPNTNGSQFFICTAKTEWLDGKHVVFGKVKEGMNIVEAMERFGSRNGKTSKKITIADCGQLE
From the text: (§2) Disruption of B-Raf Ras-Binding Domain (BRAF^RBD) Interaction with K-Ras by Compounds of the Invention (Also Called a FRET Assay or an MOA Assay)
(§3) Note—The following protocol describes a procedure for monitoring disruption of K-Ras G12C (GMP-PNP) binding to BRAF^RBD by a compound of the invention. This protocol may also be executed substituting other Ras proteins or nucleotides, such as K-Ras G12D and K-Ras G13D.
(§4) The purpose of this biochemical assay was to measure the ability of test compounds to facilitate ternary complex formation between a nucleotide-loaded K-Ras isoform and Cyclophilin A; the resulting ternary complex disrupts binding to a BRAF^RBD construct, inhibiting K-Ras signaling through a RAF effector. Data is reported as IC50 values.
(§5) In assay buffer containing 25 mM HEPES pH 7.3, 0.002% Tween20, 0.1% BSA, 100 mM NaCl and 5 mM MgCl2, tagless Cyclophilin A, His6-K-Ras-GMPPNP, and GST-BRAF^RBD were combined in a 384-well assay plate at final concentrations of 25 μM, 12.5 nM, and 50 nM, respectively. Compound was present in plate wells as a 10-point 3-fold dilution series starting at a final concentration of 30 μM. After incubation at 25° C. for 3 hours, a mixture of anti-His Eu—W1024 and anti-GST allophycocyanin was then added to assay sample wells at final concentrations of 10 nM and 50 nM, respectively, and the reaction incubated for an additional 1.5 hours. […] Compounds that facilitate disruption of a K-Ras: RAF complex were identified as those eliciting a decrease in the TR-FRET ratio relative to DMSO control wells.

KRAS G12S = KRAS G12S (Homo sapiens (Human), UniProt P01116+P62937, G12S); assay: Ras-Raf disruption/FRET/MOA assay, KRAS G12S; format: biochemical
Chain of KRAS G12S (P01116 other isoform, or with tags, fused parts or gaps G12S): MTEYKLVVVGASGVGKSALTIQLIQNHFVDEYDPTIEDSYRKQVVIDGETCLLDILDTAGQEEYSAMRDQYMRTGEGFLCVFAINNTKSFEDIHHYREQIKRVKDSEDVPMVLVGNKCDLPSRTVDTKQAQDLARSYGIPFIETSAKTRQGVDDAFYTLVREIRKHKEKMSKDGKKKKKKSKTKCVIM
Chain of KRAS G12S (P62937 whole entry): as the sequence (P62937 whole entry, the tested form may be a part) above
From the text: as §2, §3, §4, §5

KRAS G13C = KRAS G13C (Homo sapiens (Human), UniProt P01116+P62937, G13C); assay: Ras-Raf disruption/FRET/MOA assay, KRAS G13C; format: biochemical
Chain of KRAS G13C (P01116 other isoform, or with tags, fused parts or gaps G13C): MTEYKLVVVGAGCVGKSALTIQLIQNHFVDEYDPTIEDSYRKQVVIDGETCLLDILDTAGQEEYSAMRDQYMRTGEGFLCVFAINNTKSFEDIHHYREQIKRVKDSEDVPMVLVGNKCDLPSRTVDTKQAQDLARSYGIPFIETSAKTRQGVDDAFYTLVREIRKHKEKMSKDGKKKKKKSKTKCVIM
Chain of KRAS G13C (P62937 whole entry): as the sequence (P62937 whole entry, the tested form may be a part) above
From the text: as §2, §3, §4, §5

KRAS G12V = KRAS G12V (Homo sapiens (Human), UniProt P01116+P62937, G12V); assay: Ras-Raf disruption/FRET/MOA assay, KRAS G12V; format: biochemical
Chain of KRAS G12V (P01116 other isoform, or with tags, fused parts or gaps G12V): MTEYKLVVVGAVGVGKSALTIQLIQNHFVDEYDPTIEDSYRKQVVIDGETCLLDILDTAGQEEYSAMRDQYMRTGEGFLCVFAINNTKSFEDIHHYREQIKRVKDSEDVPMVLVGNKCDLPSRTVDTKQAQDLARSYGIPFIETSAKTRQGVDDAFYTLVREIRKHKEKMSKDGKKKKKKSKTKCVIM
Chain of KRAS G12V (P62937 whole entry): as the sequence (P62937 whole entry, the tested form may be a part) above
In short: (§6)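 His6-Ras-GMPPNP 12.5 nM + GST-BRAF^RBD 50 nM + CypA 25 μM; HEPES pH 7.3, 5 mM MgCl2, 0.1% BSA, 0.002% Tween20. Cpd 10-pt 3-fold from 30 μM final, 3 h 25° C. Eu/APC antibody detection 1.5 h; TR-FRET ratio drop vs DMSO → IC50.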

KRAS G12D = KRAS G12D (Homo sapiens (Human), UniProt P01116+P62937, G12D); assay: Ras-Raf disruption/FRET/MOA assay, KRAS G12D; format: biochemical
Chain of KRAS G12D (P01116 other isoform, or with tags, fused parts or gaps G12D): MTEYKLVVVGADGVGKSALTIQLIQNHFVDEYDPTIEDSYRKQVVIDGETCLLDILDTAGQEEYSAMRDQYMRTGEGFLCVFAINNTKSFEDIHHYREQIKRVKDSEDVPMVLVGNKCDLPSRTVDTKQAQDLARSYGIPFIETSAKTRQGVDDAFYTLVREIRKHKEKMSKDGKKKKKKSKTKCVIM
Chain of KRAS G12D (P62937 whole entry): as the sequence (P62937 whole entry, the tested form may be a part) above
From the text: as §2, §3, §4, §5

KRAS WT = KRAS WT (Homo sapiens (Human), UniProt P01116+P62937); assay: Ras-Raf disruption/FRET/MOA assay, KRAS WT; format: biochemical
Chain of KRAS WT (P01116 other isoform, or with tags, fused parts or gaps): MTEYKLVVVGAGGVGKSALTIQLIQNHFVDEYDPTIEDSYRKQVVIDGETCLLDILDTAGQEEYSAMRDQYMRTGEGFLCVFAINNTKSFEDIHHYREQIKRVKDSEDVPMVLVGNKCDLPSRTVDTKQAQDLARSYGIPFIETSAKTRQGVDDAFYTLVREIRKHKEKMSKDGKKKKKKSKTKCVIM
Chain of KRAS WT (P62937 whole entry): as the sequence (P62937 whole entry, the tested form may be a part) above
In short: as §6

KRAS G12C = KRAS G12C (Homo sapiens (Human), UniProt P01116+P62937, G12C); assay: Ras-Raf disruption/FRET/MOA assay, KRAS G12C; format: biochemical
Chain of KRAS G12C (P01116-2 other isoform, or with tags, fused parts or gaps G12C): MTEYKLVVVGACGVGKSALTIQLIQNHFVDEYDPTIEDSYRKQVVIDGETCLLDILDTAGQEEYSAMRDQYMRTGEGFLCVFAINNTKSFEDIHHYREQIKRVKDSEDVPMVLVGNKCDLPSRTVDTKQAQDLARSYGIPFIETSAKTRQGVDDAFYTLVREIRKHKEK
Chain of KRAS G12C (P62937 whole entry): as the sequence (P62937 whole entry, the tested form may be a part) above
From the text: as §2, §3, §4, §5

NRAS G12C = NRAS G12C (Homo sapiens (Human), UniProt P01111+P62937, G12C); assay: Ras-Raf disruption/FRET/MOA assay, NRAS G12C; format: biochemical
Chain of NRAS G12C (P01111 whole entry G12C): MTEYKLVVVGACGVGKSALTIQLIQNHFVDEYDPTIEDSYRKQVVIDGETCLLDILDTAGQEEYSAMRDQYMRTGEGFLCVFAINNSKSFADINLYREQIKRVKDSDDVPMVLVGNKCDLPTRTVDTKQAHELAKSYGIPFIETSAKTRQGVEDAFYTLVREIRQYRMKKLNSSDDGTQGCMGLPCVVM
Chain of NRAS G12C (P62937 whole entry): as the sequence (P62937 whole entry, the tested form may be a part) above
From the text: as §2, §3, §4, §5

[3] = read-out: H358 Cell Viability IC50, K-Ras G12C, 5-day treatment
[4] = read-out: KRAS G12C FRET data IC50
[5] = read-out: NRAS G12C FRET data IC50

Compound	EC50 (AsPC-1 (K-Ras G12D) [1]; ASPC1, read-out: pERK EC50) [µM]	IC50 (AsPC-1 (K-Ras G12D) [2]) [µM]	IC50 (KRAS G13D) [nM]	IC50 (KRAS G12S) [nM]	IC50 (KRAS G13C) [nM]	IC50 (KRAS G12V) [nM]	IC50 (KRAS G12D) [nM]	IC50 (KRAS WT) [nM]	IC50 (KRAS G12C) [nM]	IC50 (NRAS G12C) [nM]	IC50 (KRAS G13D; read-out: KRAS G13D FRET IC50) [nM]	IC50 (KRAS G12S; read-out: KRAS G12S FRET IC50) [nM]	IC50 (KRAS G13C; read-out: KRAS G13C FRET IC50) [nM]	IC50 (KRAS G12V; read-out: KRAS G12V FRET IC50) [nM]	IC50 (KRAS G12D; read-out: KRAS G12D FRET IC50) [nM]	IC50 (KRAS WT; read-out: KRAS WT FRET IC50) [nM]	IC50 (KRAS G12C; [4]) [nM]	IC50 (NRAS G12C; [5]) [nM]	also measured
CCn1c(-c2cnccc2COC)c2c3cc(ccc31)-c1cc(O)cc(c1)C[C@H](NC(=O)[C@H](C(C)C)N(C)C(=O)CN(C)C(=O)[C@@H]1N[C@H]1c1ccccc1)C(=O)N1CCC[C@H](N1)C(=O)OCC(C)(C)C2 [Example 11]	< 5	1 to 10	100 to 1000	10 to 100	10 to 100	10 to 100	1000 to 10000	100 to 1000	10 to 100	10 to 100									IC50 (NCI-H358 (K-Ras G12C); [3]): 100 to 1000 nM
CCn1c(-c2cccnc2COC)c2c3cc(ccc31)-c1cc(O)cc(c1)C[C@H](NC(=O)[C@H](C(C)C)N(C)C(=O)CCNC(=O)NCCCl)C(=O)N1CCC[C@H](N1)C(=O)OCC(C)(C)C2 [Example 25, (2S)-2-(3-(3-(2-chloroethyl)ureido)-N-methylpropanamido)-N-((6^3S,4S)-1^1-ethyl-25-hydroxy-1^2-(2-(methoxymethyl)pyridin-3-yl)-10,10-dimethyl-5,7-dioxo-6^1,6^2,6^3,6^4,6^5,6^6-hexahydro-1^1H-8-oxa-1 (5,3)-indola-6 (1,3)-pyridazina-2 (1,3)-benzenacycloundecaphane-4-yl)-3-methylbutanamide]			1000 to 10000	> 10000	1000 to 10000	1000 to 10000	> 10000	1000 to 10000	1000 to 10000	> 10000									IC50 (NCI-H358 (K-Ras G12C); [3]): > 10000 nM
CCn1c(-c2cnccc2COC)c2c3cc(ccc31)-c1cc(O)cc(c1)C[C@H](NC(=O)[C@@H](CCNC1=NCCO1)C(C)C)C(=O)N1CCC[C@H](N1)C(=O)OCC(C)(C)C2 [Example 30]											1000 to 10000	> 10000	> 10000	1000 to 10000	> 10000	1000 to 10000	1000 to 10000	> 10000	IC50 (NCI-H358 (K-Ras G12C); read-out: H358 Cell Viability IC50): 1000 to 10000 nM
CCn1c(-c2cnccc2COC)c2c3cc(ccc31)-c1cc(O)cc(c1)C[C@H](NC(=O)[C@H](C(C)C)N(C)C(=O)CN(C)C(=O)[C@H]1N[C@H]1C(=O)OC)C(=O)N1CCC[C@H](N1)C(=O)OCC(C)(C)C2 [Example 51]	< 5	> 10	100 to 1000	100 to 1000	10 to 100	100 to 1000	100 to 1000	100 to 1000	10 to 100	100 to 1000									
CCn1c(-c2cnccc2COC)c2c3cc(ccc31)-c1cc(O)cc(c1)C[C@H](NC(=O)[C@H](C(C)C)N(C)C(=O)CN(C)C(=O)[C@H]1N[C@H]1c1ccc(OC)cc1)C(=O)N1CCC[C@H](N1)C(=O)OCC(C)(C)C2 [Example 93]	< 5	> 10	100 to 1000	10 to 100	10 to 100	10 to 100	100 to 1000	10 to 100	10 to 100	10 to 100									
CCn1c(-c2cnccc2COC)c2c3cc(ccc31)-c1cc(O)cc(c1)C[C@H](NC(=O)[C@H](C(C)C)N(C)C(=O)CN(C)C(=O)[C@H]1N[C@@H]1c1ccc(OC)cc1)C(=O)N1CCC[C@H](N1)C(=O)OCC(C)(C)C2 [Example 97]	< 5	1 to 10	100 to 1000	10 to 100	10 to 100	10 to 100	100 to 1000	10 to 100	10 to 100	10 to 100									
CCn1c(-c2cnccc2COC)c2c3cc(ccc31)-c1cc(O)cc(c1)C[C@H](NC(=O)[C@H](C(C)C)N(C)C(=O)CN(C)C(=O)[C@H]1N[C@H]1C1CC1)C(=O)N1CCC[C@H](N1)C(=O)OCC(C)(C)C2 [Example 104]	< 5	1 to 10	100 to 1000	10 to 100	10 to 100	100 to 1000	100 to 1000	100 to 1000	10 to 100	10 to 100									
CCn1c(-c2cnccc2COC)c2c3cc(ccc31)-c1cc(O)cc(c1)C[C@H](NC(=O)[C@H](C(C)C)N(C)C(=O)CN(C)C(=O)[C@@H]1N[C@@H]1C)C(=O)N1CCC[C@H](N1)C(=O)OCC(C)(C)C2 [Example 105]	< 5	1 to 10	100 to 1000	10 to 100	10 to 100	100 to 1000	100 to 1000	10 to 100	10 to 100	10 to 100									
CCn1c(-c2cccnc2[C@H](C)OC)c2c3cc(ccc31)-c1cc(O)cc(c1)C[C@H](NC(=O)[C@H](C(C)C)N1CCC3(CC(C(=O)[C@H]4CN4)C3)C1=O)C(=O)N1CCC[C@H](N1)C(=O)OCC(C)(C)C2 (some centres unmarked) [Example 115]											10 to 100	100 to 1000	10 to 100	100 to 1000	100 to 1000	10 to 100	< 10	< 10	IC50 (AsPC-1 (K-Ras G12D) [2]; K-Ras G12D, 5-day treatment): > 10 µM
CCn1c(-c2cccnc2[C@H](C)OC)c2c3cc(ccc31)-c1cc(O)cc(c1)C[C@H](NC(=O)[C@H](C(C)C)N1CC[C@@]3(CCC(C(=O)[C@@H]4N[C@@H]4C4CC4)C3)C1=O)C(=O)N1CCC[C@H](N1)C(=O)OCC(C)(C)C2 (some centres unmarked) [Example 128]											100 to 1000	100 to 1000	10 to 100	100 to 1000	100 to 1000	100 to 1000	10 to 100	10 to 100	EC50 (AsPC-1 (K-Ras G12D) [1]; ASPC1, AsPC-1 KRAS G12D, read-out: pERK EC50): < 5 µM; IC50 (AsPC-1 (K-Ras G12D) [2]; K-Ras G12D, 5-day treatment): 1 to 10 µM
